Measured values published in patent publication US20120238762A1, “AZOLE DERIVATIVES AND METHODS FOR PRODUCING THE SAME, INTERMEDIATE COMPOUNDS FOR THE DERIVATIVES AND METHODS FOR PRODUCING THE SAME, AND AGRO-HORTICULTURAL AGENTS AND INDUSTRIAL MATERIAL PROTECTING AGENTS CONTAINING THE DERIVATIVES” (KUREHA CORPORATION, priority 2009, published 2012).

Tests used:
[1] = tested on: various phytopathogenic fungi for plants and hazardous microorganism for industrial materials; test: microbe, parasite or virus in culture; assay type: cell-based; set-up: dose or concentration left out as unconfirmed
[2] = Mycelial growth inhibition on plate medium against industrial material deteriorating microorganisms, treatment at 50 mg/l; conditions: read-out: Growth inhibition grade
Method: Compound (I) was dissolved in 2 ml of dimethyl sulfoxide. 0.6 ml of this solution was added to 60 ml of a PDA medium (potato dextrose agar medium) and at about 60 degrees C., which was mixed thoroughly in a 100-ml conical flask, and poured into a dish, where it was solidified, thereby obtaining a plate medium containing the inventive compound at a certain concentration.
On the other hand, a subject microorganism previously cultured on a plate medium was cut out using a cork borer whose diameter was 4 mm, and inoculated to the test compound-containing plate medium described above. […] The growth degree of the microorganism on the test compound-containing plate medium was compared with the growth degree of the microorganism in the untreated group, and % mycelial growth inhibition was calculated by the following equation.
wherein R=% mycelial extension inhibition, dc=flora diameter in untreated plate, dt=flora diameter in treated plate.
The results obtained were evaluated as one of the 5 grades in accordance with the following criteria.
<Growth Inhibition Grade>
4: % Mycerial growth inhibition of less than 80 to 60% or higher
3: % Mycerial growth inhibition of less than 60 to 40% or higher
2: % Mycerial growth inhibition of less than 40 to 20% or higher

[3] = Alternaria alternata, read-out: Growth inhibition grade, A.m
[4] = Fusarium graminearum, read-out: Growth inhibition grade, F.g
[5] = Parastagonospora nodorum, read-out: Growth inhibition grade, P.n
[6] = Pyricularia oryzae, read-out: Growth inhibition grade, P.o
[7] = Rhynchosporium secalis, read-out: Growth inhibition grade, R.sec
[8] = Sclerotinia sclerotiorum, read-out: Growth inhibition grade, S.s
[9] = Ustilago nuda, read-out: Growth inhibition grade, U.n
[10] = read-out: Growth inhibition grade, B.c
[11] = read-out: Growth inhibition grade, F.c
[12] = read-out: Growth inhibition grade, G.f
[13] = read-out: Growth inhibition grade, P.h

In the case of `OC(Cn1cncn1)(C1CC1(Cl)Cl)C1(Cl)CC1` (single isomer, unassigned) [I-2a, 1-(1-chlorocyclopropyl)-1-(2,2-dichlorocyclopropyl)-2-(1H-1,2,4-triazol-1-yl)ethanol], the inhibition [1, 3] is reported as over 80%, the inhibition [1, 4] is reported as over 80% and the inhibition [1, 5] is reported as over 80%. It also gave an inhibition [1, 6] of over 80%, an inhibition [1, 7] of over 80% and an inhibition [1, 8] of over 80%. For the same compound, the inhibition [1, 9] was over 80%, the inhibition [1, 10] was over 80% and the inhibition [1, 11] was over 80%. The inhibition [1, 12] was over 80%, the inhibition [1, 13] was over 80% and the inhibition at 50 µg/mL [2] was 60 to 80%.
For `OC(CC1CC1(Br)Br)(Cn1cncn1)C1(Cl)CC1` (single isomer, unassigned) [I-210a, 2-(1-chlorocyclopropyl)-1-(2,2-dibromocyclopropyl)-3-(1H-1,2,4-triazol-1-yl)propan-2-ol], the melting point was 114 °C, the inhibition [1, 3] was over 80% and the inhibition [1, 4] was over 80%. It also gave an inhibition [1, 5] of over 80%, an inhibition [1, 6] of over 80% and an inhibition [1, 7] of over 80%. For the same compound, the inhibition [1, 8] was over 80%, the inhibition [1, 9] was over 80% and the inhibition [1, 10] was over 80%. It also gave an inhibition [1, 11] of over 80%, an inhibition [1, 12] of over 80% and an inhibition [1, 13] of over 80%. It also gave an inhibition at 50 µg/mL [2] of 60 to 80%.
Compound `OC(CC1CC1(Cl)Cl)(CC1CC1(Cl)Cl)Cn1cncn1` (single isomer, unassigned) [I-277a, 1,3-bis(2,2-dichlorocyclopropyl)-2-(1H-1,2,4-triazol-1-ylmethyl)propan-2-ol] has a melting point of 114 to 115 °C.
Compound `OC(CC1CC1(Cl)Cl)(CC1CC1(Cl)Cl)Cn1cncn1` (single isomer, unassigned) [I-277b, 1,3-bis(2,2-dichlorocyclopropyl)-2-(1H-1,2,4-triazol-1-ylmethyl)propan-2-ol] has a melting point of 105 to 106.5 °C.
`OC(CCC1CC1(Cl)Cl)(Cn1cncn1)C1(Cl)CC1` (single isomer, unassigned) [I-607a, 2-(1-chlorocyclopropyl)-4-(2,2-dichlorocyclopropyl)-1-(1H-1,2,4-triazol-1-yl)butan-2-ol] showed a melting point of 130 to 131 °C, an inhibition [1, 3] of over 80% and an inhibition [1, 4] of over 80%. It also gave an inhibition [1, 5] of over 80%, an inhibition [1, 6] of over 80% and an inhibition [1, 7] of over 80%. It also gave an inhibition [1, 8] of over 80%, an inhibition [1, 9] of over 80% and an inhibition [1, 10] of over 80%. The inhibition [1, 11] was over 80%, the inhibition [1, 12] was over 80% and the inhibition [1, 13] was over 80%.
Compound `OC(CCC1CC1(Cl)Cl)(Cn1cncn1)C1(Cl)CC1` (single isomer, unassigned) [I-607b, 2-(1-chlorocyclopropyl)-4-(2,2-dichlorocyclopropyl)-1-(1H-1,2,4-triazol-1-yl)butan-2-ol] has a melting point of 83 to 84 °C and an inhibition at 50 µg/mL [2] of 60 to 80%.
